Assay results published in patent US12077503B2, “Substituted cyclic amides and their use as herbicides” (FMC CORPORATION, priority 2015, dated 2024).

Legend:
Type in all cases: in vivo
[1] = tested on: ivy-leaved morning glory (Ipomoea hederacea); assay: Test G Pre-Emergence Protocol; conditions: Ipomoea, pre-emergence, 312 h, evaluated after 13 days; for pest or weed control at 15.625 g/ha: 15.625 g ai/ha; for pest or weed control at 15.625 g/ha / pest or weed control at 250 g/ha: read-out: Morningglory, Ivy-leaved damage rating (100=total damage to plant; 0=no damage to plant); for pest or weed control at 62.5 g/ha: 62.5 g ai/ha, 100=total damage to plant, 0=no damage to plant, read-out: Morningglory, Ivy-leaved damage rating; for pest or weed control at 250 g/ha: 250 g ai/ha
Outline: (§1)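 One day after sowing, pots are treated with a spray of test compound formulated in acetone/water 50:50 plus 0.5% Tween 20, giving 15.625, 62.5 or 250 g/ha. Evaluation on a 0–100 damage scale follows 13 days of glasshouse growth.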

[2] = tested on: redroot pigweed (Amaranthus retroflexus); assay: Test G Pre-Emergence Protocol; conditions: Amaranthus retroflexus, pre-emergence, 312 h, evaluated after 13 days; for pest or weed control at 15.625 g/ha: 15.625 g ai/ha; for pest or weed control at 15.625 g/ha / pest or weed control at 250 g/ha: read-out: Pigweed, Redroot damage rating (100=total damage to plant; 0=no damage to plant); for pest or weed control at 62.5 g/ha: 62.5 g ai/ha, 100=total damage to plant, 0=no damage to plant, read-out: Pigweed, Redroot damage rating; for pest or weed control at 250 g/ha: 250 g ai/ha
Outline: as §1

[3] = tested on: velvetleaf (Abutilon theophrasti); assay: Test G Pre-Emergence Protocol; conditions: Abutilon theophrasti, pre-emergence, 312 h, evaluated after 13 days; for pest or weed control at 15.625 g/ha: 15.625 g ai/ha; for pest or weed control at 15.625 g/ha / pest or weed control at 250 g/ha: read-out: Velvetleaf damage rating (100=total damage to plant; 0=no damage to plant); for pest or weed control at 62.5 g/ha: 62.5 g ai/ha, 100=total damage to plant, 0=no damage to plant, read-out: Velvetleaf damage rating; for pest or weed control at 250 g/ha: 250 g ai/ha
Outline: as §1

corn (Zea mays) [4] = assay: Test G Pre-Emergence Protocol; conditions: Zea mays, pre-emergence, 312 h, evaluated after 13 days; for plant injury at 15.625 g/ha: 15.625 g ai/ha; for plant injury at 15.625 g/ha / plant injury at 250 g/ha: read-out: Corn damage rating (100=total damage to plant; 0=no damage to plant); for plant injury at 62.5 g/ha: 62.5 g ai/ha, 100=total damage to plant, 0=no damage to plant, read-out: Corn damage rating; for plant injury at 250 g/ha: 250 g ai/ha
Outline: as §1

[5] = tested on: barnyardgrass (Echinochloa crus-galli); assay: Test G Pre-Emergence Protocol; conditions: Echinochloa crus-galli, pre-emergence, 312 h, evaluated after 13 days; for pest or weed control at 15.625 g/ha: 15.625 g ai/ha; for pest or weed control at 15.625 g/ha / pest or weed control at 250 g/ha: read-out: Barnyardgrass damage rating (100=total damage to plant; 0=no damage to plant); for pest or weed control at 62.5 g/ha: 62.5 g ai/ha, 100=total damage to plant, 0=no damage to plant, read-out: Barnyardgrass damage rating; for pest or weed control at 250 g/ha: 250 g ai/ha
Outline: as §1

[6] = tested on: giant foxtail (Setaria faberi); assay: Test G Pre-Emergence Protocol; conditions: Setaria faberi, pre-emergence, 312 h, evaluated after 13 days; for pest or weed control at 15.625 g/ha: 15.625 g ai/ha; for pest or weed control at 15.625 g/ha / pest or weed control at 250 g/ha: read-out: Foxtail, Giant damage rating (100=total damage to plant; 0=no damage to plant); for pest or weed control at 62.5 g/ha: 62.5 g ai/ha, 100=total damage to plant, 0=no damage to plant, read-out: Foxtail, Giant damage rating; for pest or weed control at 250 g/ha: 250 g ai/ha
Outline: as §1

[7] = tested on: ivy-leaved morning glory (Ipomoea hederacea); assay: Test G Post-Emergence Protocol; conditions: Ipomoea, post-emergence, 312 h, read-out: Morningglory, Ivy-leaved damage rating; for pest or weed control at 15.625 g/ha: 15.625 g ai/ha, evaluated after 13 days (100=total damage to plant; 0=no damage to plant); for pest or weed control at 62.5 g/ha: 62.5 g ai/ha; for pest or weed control at 62.5 g/ha / pest or weed control at 250 g/ha: evaluated after 13 days, 100=total damage to plant, 0=no damage to plant; for pest or weed control at 250 g/ha: 250 g ai/ha
Outline: (§2)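 Eight days post-sowing, plants received a spray of test compound (acetone/water 50:50, 0.5% Tween 20) at 15.625, 62.5 or 250 g/ha. Glasshouse regime thereafter: 24/16 °C, 14 h light, 65% humidity. Assessment after 13 days on a 0–100 damage scale.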

[8] = tested on: redroot pigweed (Amaranthus retroflexus); assay: Test G Post-Emergence Protocol; conditions: Amaranthus retroflexus, post-emergence, 312 h, read-out: Pigweed, Redroot damage rating; for pest or weed control at 15.625 g/ha: 15.625 g ai/ha, evaluated after 13 days (100=total damage to plant; 0=no damage to plant); for pest or weed control at 62.5 g/ha: 62.5 g ai/ha; for pest or weed control at 62.5 g/ha / pest or weed control at 250 g/ha: evaluated after 13 days, 100=total damage to plant, 0=no damage to plant; for pest or weed control at 250 g/ha: 250 g ai/ha
Outline: as §2

[9] = tested on: velvetleaf (Abutilon theophrasti); assay: Test G Post-Emergence Protocol; conditions: Abutilon theophrasti, post-emergence, 312 h, read-out: Velvetleaf damage rating; for pest or weed control at 15.625 g/ha: 15.625 g ai/ha, evaluated after 13 days (100=total damage to plant; 0=no damage to plant); for pest or weed control at 62.5 g/ha: 62.5 g ai/ha; for pest or weed control at 62.5 g/ha / pest or weed control at 250 g/ha: evaluated after 13 days, 100=total damage to plant, 0=no damage to plant; for pest or weed control at 250 g/ha: 250 g ai/ha
Outline: as §2

corn (Zea mays) [10] = assay: Test G Post-Emergence Protocol; conditions: Zea mays, post-emergence, 312 h, read-out: Corn damage rating; for plant injury at 15.625 g/ha: 15.625 g ai/ha, evaluated after 13 days (100=total damage to plant; 0=no damage to plant); for plant injury at 62.5 g/ha: 62.5 g ai/ha; for plant injury at 62.5 g/ha / plant injury at 250 g/ha: evaluated after 13 days, 100=total damage to plant, 0=no damage to plant; for plant injury at 250 g/ha: 250 g ai/ha
Outline: as §2

[11] = tested on: barnyardgrass (Echinochloa crus-galli); assay: Test G Post-Emergence Protocol; conditions: Echinochloa crus-galli, post-emergence, 312 h, read-out: Barnyardgrass damage rating; for pest or weed control at 15.625 g/ha: 15.625 g ai/ha, evaluated after 13 days (100=total damage to plant; 0=no damage to plant); for pest or weed control at 62.5 g/ha: 62.5 g ai/ha; for pest or weed control at 62.5 g/ha / pest or weed control at 250 g/ha: evaluated after 13 days, 100=total damage to plant, 0=no damage to plant; for pest or weed control at 250 g/ha: 250 g ai/ha
Outline: as §2

[12] = tested on: giant foxtail (Setaria faberi); assay: Test G Post-Emergence Protocol; conditions: Setaria faberi, post-emergence, 312 h, read-out: Foxtail, Giant damage rating; for pest or weed control at 15.625 g/ha: 15.625 g ai/ha, evaluated after 13 days (100=total damage to plant; 0=no damage to plant); for pest or weed control at 62.5 g/ha: 62.5 g ai/ha; for pest or weed control at 62.5 g/ha / pest or weed control at 250 g/ha: evaluated after 13 days, 100=total damage to plant, 0=no damage to plant; for pest or weed control at 250 g/ha: 250 g ai/ha
Outline: as §2

| SMILES | pest or weed control at 15.625 g/ha [1] | pest or weed control at 62.5 g/ha [1] | pest or weed control at 250 g/ha [1] | pest or weed control at 15.625 g/ha [2] | pest or weed control at 62.5 g/ha [2] | pest or weed control at 250 g/ha [2] | pest or weed control at 15.625 g/ha [3] | pest or weed control at 62.5 g/ha [3] | pest or weed control at 250 g/ha [3] | plant injury at 15.625 g/ha (corn (Zea mays) [4]) | plant injury at 62.5 g/ha (corn (Zea mays) [4]) | plant injury at 250 g/ha (corn (Zea mays) [4]) | pest or weed control at 15.625 g/ha [5] | pest or weed control at 62.5 g/ha [5] | pest or weed control at 250 g/ha [5] | pest or weed control at 15.625 g/ha [6] | pest or weed control at 62.5 g/ha [6] | pest or weed control at 250 g/ha [6] | pest or weed control at 15.625 g/ha [7] | pest or weed control at 62.5 g/ha [7] | further results |
| --- | --- | --- | --- | --- | --- | --- | --- | --- | --- | --- | --- | --- | --- | --- | --- | --- | --- | --- | --- | --- | --- |
| CN1C[C@@H](c2cccc(C(F)(F)F)c2)[C@H](C(=O)Nc2cccnc2F)C1=O [Compound 1823] | 0% | 0% | 0% | 0% | 0% | 0% | 0% | 0% | 0% | 0% | 0% | 0% | 0% | 0% | 0% | 0% | 0% | 0% | 0% | 0% | pest or weed control at 250 g/ha [7]: 0%; pest or weed control at 15.625 g/ha [8]: 0%; pest or weed control at 62.5 g/ha [8]: 0%; pest or weed control at 250 g/ha [8]: 0%; pest or weed control at 15.625 g/ha [9]: 0%; pest or weed control at 62.5 g/ha [9]: 0%; pest or weed control at 250 g/ha [9]: 0%; plant injury at 15.625 g/ha (corn (Zea mays) [10]): 0%; plant injury at 62.5 g/ha (corn (Zea mays) [10]): 0%; plant injury at 250 g/ha (corn (Zea mays) [10]): 0%; pest or weed control at 15.625 g/ha [11]: 0%; pest or weed control at 62.5 g/ha [11]: 0%; pest or weed control at 250 g/ha [11]: 0%; pest or weed control at 15.625 g/ha [12]: 0%; pest or weed control at 62.5 g/ha [12]: 0%; pest or weed control at 250 g/ha [12]: 0% |
| CN1C[C@H](c2cccc(C(F)(F)F)c2)[C@@H](C(=O)Nc2cnccc2C#N)C1=O (racemic) [Compound 1761] | 0% | 0% | 0% | 0% | 0% | 0% | 0% | 0% | 0% | 0% | 0% | 0% | 0% | 30% | 70% | 0% | 40% | 70% | 0% | 40% | pest or weed control at 250 g/ha [7]: 50%; pest or weed control at 15.625 g/ha [8]: 0%; pest or weed control at 62.5 g/ha [8]: 0%; pest or weed control at 250 g/ha [8]: 10%; pest or weed control at 15.625 g/ha [9]: 0%; pest or weed control at 62.5 g/ha [9]: 0%; pest or weed control at 250 g/ha [9]: 10%; plant injury at 15.625 g/ha (corn (Zea mays) [10]): 0%; plant injury at 62.5 g/ha (corn (Zea mays) [10]): 0%; plant injury at 250 g/ha (corn (Zea mays) [10]): 0%; pest or weed control at 15.625 g/ha [11]: 0%; pest or weed control at 62.5 g/ha [11]: 0%; pest or weed control at 250 g/ha [11]: 70%; pest or weed control at 15.625 g/ha [12]: 0%; pest or weed control at 62.5 g/ha [12]: 0%; pest or weed control at 250 g/ha [12]: 70% |
